{"source": "patent US11022604B2", "about": "“Dock derived compound against laminin receptor (37 LR) and uses thereof” (Purdue Research Foundation, priority 2017, dated 2021)", "molecules": {"B1": {"name": "recombinant PEDF: Recombinant pigment epithelium-derived factor (BioProductsMD), secreted glycoprotein (protein, UniProt P36955 20-418, looked up)", "Pigment epithelium-derived …": "QNPASPPEEGSPDPDSTGALVEEEDPFFKVPVNKLAAAVSNFGYDLYRVRSSTSPTTNVLLSPLSVATALSALSLGAEQRTESIIHRALYYDLISSPDIHGTYKELLDTVTAPQKNLKSASRIVFEKKLRIKSSFVAPLEKSYGTRPRVLTGNPRLDLQEINNWVQAQMKGKLARSTKEIPDEISILLLGVAHFKGQWVTKFDSRKTSLEDFYLDEERTVRVPMMSDPKAVLRYGLDSDLSCKIAQLPLTGSMSIIFFLPLKVTQNLTLIEESLTSEFIHDIDRELKTVQAVLTVPKLKLSYEGEVTKSLQEMKLQSLFDSPDFSKITGKPIKLTQVEHRAGFEWNEDGAGTTPSPGLQPAHLTFPLDYHLNQPFIFVLRDTDTGALLFIGKILDPRGP"}}, "format_in_all_cases": "cell-based", "key": {"[1]": {"system": "PC3 prostate cancer cell line", "assay": "Cell Titer Glo cell viability assay", "excerpt": "In this series of cell viability experiments, we used the highly sensitive Cell Titer Glo reagents from Promega in PC3 prostate cancer cell line. We compared the parental compound C3 effect on reducing cell viability with the best derivative compound, DBG-02-09."}, "[2]": {"system": "PC3 prostate cancer cell lines", "assay": "CCK8 cell viability screen of derivatives", "settings": "PC3, CCK8, day three", "description": "FIGS. 22A-22B. Screen of all the derivatives made in Example 17 in CCK8 cell viability assay with PC3 prostate cancer cell lines at day 3 (FIG. 22A) and day 5 (FIG. 22B).\nFIG. 23. All derivatives made in Example 17 are tested for cell inhibition percentage at day 3.\nCCK8 cell viability assay with PC3 prostate cancer cell lines is conducted and cell viability on day 3, day 5 are examined, see FIGS. 22A-22B. Additionally, the cell inhibition percentage for compounds DBG1-191, 1-200, 02-09, 2-14, among others were further characterized in CCK8 assay against PC3."}, "[3]": {"system": "endothelial vessel formation in vitro (tube formation)", "assay": "Angiogenesis tube formation assay (derivatives)", "settings": "30 uM, 7 hour incubation", "description": "FIGS. 28A-28F Representative images of tube formation. 7 hour incubation period with respective compounds: FIG. 28A, DMSO; FIG. 28B DBGII-3, 30 uM; FIG. 28C, EGCG, 30 uM; FIG. 28 D, DBGII-5, 30 uM, FIG. 28E, C3, 30 uM; FIG. 28 F, DBGII-9, 30 uM.\nAn angiogenesis tube formation assay was used to characterize the impact of compounds against endothelial vessel formation in vitro (i.e., tube formation)."}, "[4]": {"system": "PC-3 cells", "assay": "PC-3 cell viability response to recombinant PEDF (CCK-8)", "settings": "48 hours", "description": "FIG. 13. PC-3 Cell Viability Response To Recombinant PEDF PC-3 cells were treated with 0.1 to 0.6 μM rPEDF for 48 hours and cell viability was measured using the CCK-8 assay (n=3, mean±SEM). A one-way ANOVA was used for statistical analysis (n.s. p=0.11) however the linear trend was significant (post test for linear trend, p<0.05).\nRecombinant PEDF (BioProductsMD) was resuspended in PEDF Buffer (0.2 M NaCl, 20 mM sodium phosphate, and 1 mM DTT; ph 6.4). 1,500 cells per well were seeded in a clear 96-well plate in RPMI-1640 with 1% anti-anti and 10% FBS and allowed to grow overnight. A 0-hour recording was taken using CCK-8 and compared to a 48-hour reading after incubating PC-3 cells with recombinant PEDF (0.1 μM to […]) in RPMI-1640 with 1% anti-anti and 1% FBS. […] The adenovirus was administered intravenously (2×10^8 pfu/i.v.) 3 days following subcutaneous TC2-Ras cell implantation (10^4 or 10^5, without mAR (−mAR control) or with mAR (+mAR) in C57/BL6 male mice. Mice were injected intraperitoneally with 150 mg/kg Luciferin (10-20 min incubation) followed by a 5 min signal acquisition using an IVIS 100 imager (Caliper/PerkinElmer, Downers Grove, Ill.) and analyzed with LivingImage 3.1 software (Caliper/PerkinElmer), with signals reported as photons per second per […] per steridian (p/sec/cm^2/sr). Statistics. Statistical analysis was performed using GraphPad Prism 6. […]"}}, "data": [{"molecule": "CN(C)CCOc1ccccc1C(=O)N1CCN(C2c3ccccc3-c3ccccc32)CC1", "note": "[DBGII-09]", "values": [{"measurement": "IC50", "setting": "[1]; Homo sapiens, PC-3, PC3 cells", "result": "7.6 ± 0.52", "unit": "µM"}, {"measurement": "reduction of IC50 relative to parental compound C3", "setting": "[1]; PC3 cells", "result": 2.2, "unit": "fold"}, {"measurement": "cell inhibition percentage (rank among derivatives)", "setting": "[2]", "result": "highest inhibition"}, {"measurement": "tube formation", "setting": "[3]", "result": "Thinning of tubes formed"}]}, {"molecule": "O=C(c1ccncc1Oc1ccccc1)N1CCN(C2c3ccccc3-c3ccccc32)CC1", "note": "[DBGII-03]", "values": [{"measurement": "tube formation", "setting": "[3]", "result": "Thinning of tubes formed"}]}, {"molecule": "O=C(c1ccccc1)N1CCN(C2c3ccccc3-c3ccccc32)CC1", "note": "[DBGII-05]", "values": [{"measurement": "tube formation", "setting": "[3]", "result": "Thinning of tubes formed"}]}, {"molecule": "B1", "values": [{"measurement": "dose/response relationship for survival of PC-3 cells", "setting": "[4]", "result": "unable to demonstrate a significant dose/response relationship"}]}]}
